Source: US20260345458A1, “Pharmaceutical, Dermatological or Cosmetic Compounds and Compositions for Reducing Melanin Synthesis, Stimulating Type I Collagen Production, Skin Depigmentation and/or Promoting a Skin Anti-Aging Effect in an Individual or Animal, Uses and Methods” (Chemyunion Ltda, priority 2022, published 2026)
Where a SMILES comes first, the peptide text is derived from it. The star is where a group is joined. Palmitoyl = CCCCCCCCCCCCCCCC(=O)*

How the values were obtained:
[1] = system: rats; settings: cited from earlier work
[2] = system: melanin synthesis; settings: as reported in prior patent documents; cited from earlier work
[3] = system: melanin synthesis in human skin fragments; experiment: Inhibition of melanin synthesis in human skin fragments (ex vivo explants, Fontana Masson staining); type: cell-based; settings: 50 ppm; 72 h; ex vivo human skin explants (n=5); vs placebo; **p<0.01 (FIG. 1)
Excerpt: FIG. 1: Semi-quantification of melanin pigment levels. Data obtained by recording images of histological sections of human skin fragments previously treated with a formulation without active ingredient (Placebo) and treated with the same formulation containing the peptide SEQ ID No. 1 (Pal-Gln-His-Trp-Val-OH) (at 50 ppm or 100 ppm). **p<0.01 compared to the placebo group.
FIG. 2: Representative images of the effect of peptide SEQ ID No. 1 (Pal-Gln-His-Trp-Val-OH) on melanin synthesis in ex vivo skin fragments-Fontana Masson staining (400× magnification).
Example 1: Evaluation of Inhibition of Melanin Synthesis in Human Skin Fragments
Skin explants (n=5), obtained from a surgical procedure performed by an ophthalmological plastic surgery clinic, were treated for 72 h with a formulation containing the peptide SEQ ID No. 1 (Pal-Gln-His-Trp-Val-OH), (at 50 ppm or 100 ppm) and with the same formulation without the addition of the peptide (placebo).
After incubation with the test products as described above, the skin fragments were fixed in 4% paraformaldehyde (pH 7.4) for 24 hours. […]
Subsequently, the slides were analyzed and recorded using an optical microscope coupled to a camera.

[4] = system: type I collagen in human skin fragments; experiment: Collagen synthesis stimulation in human skin fragments (ex vivo explants, immunofluorescence); type: cell-based; settings: 72 h, ex vivo human skin explants (n=5), vs placebo, **p<0.01 (FIG. 3)
Excerpt: FIG. 3. Semi-quantification of type I collagen levels. Data obtained by recording images of histological sections of human skin fragments previously treated with a formulation without active ingredient (Placebo) and treated with the same formulation containing the peptide SEQ ID No. 1 (Pal-Gln-His-Trp-Val-OH) (at 50 ppm or 100 ppm). **p<0.01 compared to the placebo group.
FIG. 4. Representative images of the effect of peptide SEQ ID No. 1 (Pal-Gln-His-Trp-Val-OH) on the synthesis of type I collagen in ex vivo skin fragments-immunofluorescence (400× magnification).
Example 2: Evaluation of Collagen Synthesis Stimulation in Human Skin Fragments
Skin explants (n=5) obtained from a surgical procedure performed by the ophthalmologic plastic surgery clinic were treated for 72 h with a formulation containing the peptide SEQ ID No. 1 (Pal-Gln-His-Trp-Val-OH) (at 50 ppm or 100 ppm) and with the same formulation without the addition of the peptide (placebo). After incubation with the test products as described above, the skin fragments were fixed in 4% paraformaldehyde (pH 7.4) for 24 h. […] The skin sections were then subjected to the specific labeling process for type I collagen for subsequent immunofluorescence analysis; the records were obtained using a fluorescence optical microscope coupled to a photographic camera.

[5] = system: skin; settings: cited from earlier work; for ochronosis: skin becomes more pigmented than at the beginning of treatment

In the case of `O=c1cc(CO)occ1O` [Kojic acid], the promotion of cancer [1] is given as “has been found to promote the development of liver and thyroid cancer in rats”.

In the case of `CCCCCCCCCCCCCCCC(=O)N[C@@H](Cc1ccc(O)cc1)C(=O)N[C@@H](Cc1ccc(O)cc1)C(=O)N[C@@H](CCSC)C(N)=O` [Pal-TyrTyrMet-NH2] (Palmitoyl-Tyr-Tyr-Met-NH2), the “activity on melanin synthesis / skin lightening” value [2] is given as “stimulating melanin synthesis”.

In the case of `CCCCCCCCCCCCCCCC(=O)N[C@@H](CCC(N)=O)C(=O)N[C@@H](Cc1c[nH]cn1)C(=O)N[C@@H](Cc1c[nH]c2ccccc12)C(=O)N[C@H](C(=O)O)C(C)C` [SEQ ID No. 1, Pal-Gln-His-Trp-Val-OH] (Palmitoyl-QHWV-OH), the “reduction of melanin production compared to the placebo group” value [3] is reported as 66%, the “stimulation of collagen I production compared to the placebo group” value ([4]; 50 ppm) is reported as 63% and the “increase in protein (type I collagen) synthesis compared to the placebo group” value ([4]; 100 ppm) is reported as 71%.

In the case of `OC[C@H]1O[C@@H](Oc2ccc(O)cc2)[C@H](O)[C@@H](O)[C@@H]1O` [arbutin], the ochronosis [5] is given as “can cause ochronosis”.

For `Oc1ccc(O)cc1` [hydroquinone], the ochronosis [5] is given as “can cause ochronosis” and the “effect on extracellular matrix fibers, adrenal glands, thyroid physiology and skin firmness” value ([5]; topical application, studies suggest) is given as “can disrupt the fibers of the extracellular matrix (especially collagen and elastin), leading to changes in the adrenal glands and thyroid physiology, as well as loss of skin firmness”.

In the case of Caffeoyl-GlnHisGlyVal-OH, the “activity on melanin synthesis / skin lightening” value [2] is listed as “has skin lightening activity due to its anti-inflammatory activity”.
